Data on one molecule can be found in PMC7429951 (Journal of Medicinal Chemistry, 2020).

The target in one experiment is T1, MMP-1 (Homo sapiens, UniProt P03956).
T1 sequence (P03956 100-469): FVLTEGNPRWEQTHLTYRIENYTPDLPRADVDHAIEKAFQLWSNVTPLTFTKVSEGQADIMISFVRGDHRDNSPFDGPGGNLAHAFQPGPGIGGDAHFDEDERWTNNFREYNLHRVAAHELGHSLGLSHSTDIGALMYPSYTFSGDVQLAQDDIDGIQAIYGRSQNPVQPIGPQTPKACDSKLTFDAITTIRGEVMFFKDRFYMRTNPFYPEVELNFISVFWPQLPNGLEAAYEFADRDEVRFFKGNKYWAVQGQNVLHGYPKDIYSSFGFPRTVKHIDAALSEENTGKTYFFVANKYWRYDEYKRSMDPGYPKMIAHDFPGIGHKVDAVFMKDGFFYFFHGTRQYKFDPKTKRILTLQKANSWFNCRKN
The experiment can be described thus: MMP-1 off-target inhibition. Format: biochemical. Conditions: read-out: MMP-1 % inhibition @ 100 μM; 100 μM compound. The source says: Previously, we described N-aryl mercaptoacetamides with high selectivity for the bacterial over a broad range of human MMPs.[29],[30] MMPs are calcium-dependent zinc metalloproteases that play a pivotal role in numerous biochemical processes in humans.[39],[40] Based on the depth of their S1′ binding pocket, MMPs can be divided into three classes: deep (e.g., MMP-3 and -14), intermediate (e.g., MMP-2 and -8), and shallow (e.g., MMP-1 and -7). With the aim to explore the interactions of our inhibitors with all three pocket types, which could help us to assess potential effects on other not-tested representatives, we chose a panel of six MMPs, comprising two members of each class. In addition, HDAC-3, HDAC-8, and TACE (ADAM-17)—enzymes involved in gene expression and the processing of TNF-α,[41],[42] respectively—were selected as important additional human off-targets.

Experiment [1] has as its target T2, collagenase unit of ColQ1 (ColQ1-CU) (Bacillus cereus, UniProt B9J3S4).
T2 construct: the collagenase unit of ColQ1 (ColQ1-CU) from B. cereus strain Q1
Briefly: biochemical. The following applies: read-out: ColQ1-CU % inhibition @ 100 μM. More on the design: species or system B. cereus strain Q1.

Experiment [2] addresses collagenase unit of ColG (ColG-CU) (Hathewaya histolytica, UniProt Q9X721). Briefly: biochemical. More on the design: species or system C. histolyticum. Conditions: read-out: ColG-CU % inhibition @ 100 μM.
In a further experiment the target is ColQ1 (Bacillus cereus, UniProt B9J3S4). The experiment can be described thus: Ex vivo pig-skin model, hydroxyproline quantification. Set-up: species or system B. cereus. The following applies: pig-skin explants, 300 nM ColQ1, defined concentrations of compound, vs control. The source says:
We established an ex vivo model based on pig skin to address the impact of our inhibitors on living mammalian tissue and on the contained collagen as the natural substrate of collagenase. We challenged the skin, prepared from the ear of freshly slaughtered pigs, with pure ColQ1 from B. cereus to degrade collagen. We assessed the activity of ColQ1 by quantifying the formation of hydroxyproline as an indicator for collagen turnover (Figure 4). Optimization of the assay conditions for the model consisted of examining different buffer conditions and different protein concentrations (Figures S1 and S2). To evaluate the potential effect of 25 on collagen turnover, we incubated the skin with ColQ1 in the absence and presence of defined concentrations of this compound. […] The good performance of our inhibitors in this model is a sound starting point for their subsequent testing under in vivo conditions. We expect that our inhibitors will accelerate the in vivo healing process, by preventing the distribution of infection. […]
Skin explants were obtained from freshly slaughtered pig ears, which were supplied by a local slaughterhouse. […] Absorbance was measured using a PHERAstar plate reader (BMG Labtech). The absorbance values were converted into the hydroxyproline concentration (μg/mL) using the calibration curve of hydroxyproline as a reference (Figure S3).

Chain of collagenase unit of ColG (ColG-CU) (Q9X721 111-786): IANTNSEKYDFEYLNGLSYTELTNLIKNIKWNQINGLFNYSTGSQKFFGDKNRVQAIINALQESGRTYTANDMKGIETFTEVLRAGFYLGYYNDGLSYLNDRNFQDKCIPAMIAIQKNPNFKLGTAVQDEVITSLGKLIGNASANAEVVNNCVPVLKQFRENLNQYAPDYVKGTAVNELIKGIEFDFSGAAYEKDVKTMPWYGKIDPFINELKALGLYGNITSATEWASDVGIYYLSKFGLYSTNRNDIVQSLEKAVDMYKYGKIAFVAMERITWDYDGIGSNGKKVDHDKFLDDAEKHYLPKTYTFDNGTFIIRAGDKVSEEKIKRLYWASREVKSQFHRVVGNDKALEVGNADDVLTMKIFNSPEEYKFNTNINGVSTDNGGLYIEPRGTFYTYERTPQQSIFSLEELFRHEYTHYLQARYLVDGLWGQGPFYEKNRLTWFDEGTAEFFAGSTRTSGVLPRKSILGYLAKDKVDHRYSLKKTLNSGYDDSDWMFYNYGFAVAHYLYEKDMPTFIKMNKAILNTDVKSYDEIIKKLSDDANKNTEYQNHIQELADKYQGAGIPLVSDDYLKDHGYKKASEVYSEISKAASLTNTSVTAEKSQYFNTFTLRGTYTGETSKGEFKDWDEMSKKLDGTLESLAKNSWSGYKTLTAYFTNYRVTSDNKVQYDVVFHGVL
Chain of ColQ1 (B9J3S4 94-965): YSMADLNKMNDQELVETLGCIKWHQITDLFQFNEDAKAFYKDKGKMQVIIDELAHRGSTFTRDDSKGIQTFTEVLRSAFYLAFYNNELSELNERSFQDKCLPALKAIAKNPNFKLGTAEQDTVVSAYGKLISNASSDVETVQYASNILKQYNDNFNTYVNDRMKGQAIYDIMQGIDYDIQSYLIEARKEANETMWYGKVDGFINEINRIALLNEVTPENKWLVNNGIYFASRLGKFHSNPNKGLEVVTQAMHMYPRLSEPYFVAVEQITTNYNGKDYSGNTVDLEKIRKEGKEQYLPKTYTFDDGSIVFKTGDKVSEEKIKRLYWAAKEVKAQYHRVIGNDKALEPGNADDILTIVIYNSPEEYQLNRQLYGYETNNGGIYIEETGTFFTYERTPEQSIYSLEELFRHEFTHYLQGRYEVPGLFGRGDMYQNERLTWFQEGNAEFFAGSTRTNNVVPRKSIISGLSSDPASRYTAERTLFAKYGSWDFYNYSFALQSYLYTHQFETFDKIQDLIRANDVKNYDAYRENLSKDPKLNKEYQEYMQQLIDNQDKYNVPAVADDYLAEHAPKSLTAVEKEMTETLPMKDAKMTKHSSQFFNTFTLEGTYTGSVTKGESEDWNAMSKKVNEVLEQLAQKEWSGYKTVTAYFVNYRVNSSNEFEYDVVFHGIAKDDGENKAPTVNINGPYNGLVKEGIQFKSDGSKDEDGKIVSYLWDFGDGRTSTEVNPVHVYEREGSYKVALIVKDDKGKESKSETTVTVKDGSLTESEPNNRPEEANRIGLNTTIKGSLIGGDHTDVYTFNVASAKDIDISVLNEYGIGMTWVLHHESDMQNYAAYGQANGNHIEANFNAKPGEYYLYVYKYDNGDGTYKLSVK
T2 sequence (B9J3S4 94-765 limits assumed): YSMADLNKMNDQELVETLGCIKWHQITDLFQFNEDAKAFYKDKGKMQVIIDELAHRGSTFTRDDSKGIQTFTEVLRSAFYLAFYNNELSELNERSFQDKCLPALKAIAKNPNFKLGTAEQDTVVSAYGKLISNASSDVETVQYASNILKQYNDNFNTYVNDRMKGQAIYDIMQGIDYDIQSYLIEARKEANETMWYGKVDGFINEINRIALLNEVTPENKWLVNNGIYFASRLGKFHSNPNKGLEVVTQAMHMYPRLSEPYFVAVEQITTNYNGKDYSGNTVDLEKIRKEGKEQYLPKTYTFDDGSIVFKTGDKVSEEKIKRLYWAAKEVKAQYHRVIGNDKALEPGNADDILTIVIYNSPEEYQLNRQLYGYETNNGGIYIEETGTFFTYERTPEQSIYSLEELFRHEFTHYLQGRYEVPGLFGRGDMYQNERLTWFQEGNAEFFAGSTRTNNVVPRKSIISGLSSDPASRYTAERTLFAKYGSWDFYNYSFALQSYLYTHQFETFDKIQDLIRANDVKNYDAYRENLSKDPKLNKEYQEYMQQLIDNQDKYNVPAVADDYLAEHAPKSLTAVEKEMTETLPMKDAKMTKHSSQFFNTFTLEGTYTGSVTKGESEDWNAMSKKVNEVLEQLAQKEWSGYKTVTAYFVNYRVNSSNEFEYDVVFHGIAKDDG

On to `CC(=O)c1ccc(N2C(=O)CC(S)C2=O)cc1` (stereo not shown) [Compound 25, 1-(4-Acetylphenyl)-3-mercaptopyrrolidine-2,5-dione], for which the inhibition at 100 µM was below 10% on MMP-1, 99 ± 2% in experiment [1] and 100 ± 2% in experiment [2]. Also, on ColQ1, the “hydroxyproline released (collagenolytic activity of ColQ1)” value is given as “significantly reduced amount of hydroxyproline released compared to control”.
